# Results: patent US20190223443A1, “Methods to Increase Corn Growth” (Valent BioSciences LLC, priority 2015, published 2019)
# System: corn hybrid B73 X Mo17
# Test: Greenhouse study Long Grove, Ill., sprayed at V1-V2, change in height and synergy (Example 7)
# Format: in vivo
# Settings: for Change in height from day of treatment, 2 days post treatment: control 9.74; for Change in height from day of treatment, 4 days post treatment: control 22.59; for Change in height from day of treatment, 6 days post treatment: control 43.03
# Description: A greenhouse study was conducted at Long Grove, Ill. Seeds of the corn hybrid B73 X Mo17 was sown into potted soil on May 7, 2014. Plants were sprayed at 11 days post sowing (V1-V2) with solutions containing a non-ionic surfactant (0.25%, v/v) and growth was followed for 6 days. GA3 refers to gibberellic acid and ABA refers to abscisic acid. Results of the study described in 3. above can be seen in the following tables describing change in height in centimeters from day of treatment (Table 8) and change in height in centimeters from day of treatment compared to control (Table 9).
# Synergy is calculated as follows: […]
# Observed difference in height from control/Expected difference in height from control, where expected difference in height from control is the sum of the observed difference in height of each active ingredient applied alone. If the ratio between the experimentally observed efficacy of the mixture and the expected efficacy of the mixture is greater than 1, than synergistic interactions are present in the mixture.
structure (smiles),measurement,setting,value
"CC1=CC(=O)CC(C)(C)[C@@]1(O)/C=C/C(C)=C\C(=O)O [ABA, abscisic acid]","Observed change in height from day of treatment compared to control, 2 days post treatment",ABA 8.6 ppm alone,−0.17 cm
same,"Observed change in height from day of treatment compared to control, 4 days post treatment",ABA 8.6 ppm alone,−0.72 cm
same,"Observed change in height from day of treatment compared to control, 6 days post treatment",ABA 8.6 ppm alone,−1.37 cm
same,"Change in height from day of treatment, 2 days post treatment",ABA 8.6 ppm alone,9.57 cm
same,"Change in height from day of treatment, 4 days post treatment",ABA 8.6 ppm alone,21.87 cm
same,"Change in height from day of treatment, 6 days post treatment",ABA 8.6 ppm alone,41.66 cm
same,"Observed change in height from day of treatment compared to control, 2 days post treatment",ABA 10 ppm alone,−0.11 cm
same,"Observed change in height from day of treatment compared to control, 4 days post treatment",ABA 10 ppm alone,−0.15 cm
same,"Observed change in height from day of treatment compared to control, 6 days post treatment",ABA 10 ppm alone,−0.33 cm
same,"Change in height from day of treatment, 2 days post treatment",ABA 10 ppm alone,9.63 cm
same,"Change in height from day of treatment, 4 days post treatment",ABA 10 ppm alone,22.44 cm
same,"Change in height from day of treatment, 6 days post treatment",ABA 10 ppm alone,42.70 cm
same,"Observed change in height from day of treatment compared to control, 2 days post treatment",ABA 12 ppm alone,0.75 cm
same,"Observed change in height from day of treatment compared to control, 4 days post treatment",ABA 12 ppm alone,−0.49 cm
same,"Observed change in height from day of treatment compared to control, 6 days post treatment",ABA 12 ppm alone,0 cm
same,"Change in height from day of treatment, 2 days post treatment",ABA 12 ppm alone,10.49 cm
same,"Change in height from day of treatment, 4 days post treatment",ABA 12 ppm alone,22.10 cm
same,"Change in height from day of treatment, 6 days post treatment",ABA 12 ppm alone,43.03 cm
same,Height of the corn compared to the control (in words),"applied alone, at both 4 and 6 days post treatment",either did not increase or decreased the height
